In ChEMBL document CHEMBL3885881, “DrugMatrix”:

Organism: Rattus norvegicus
Assay: DrugMatrix - Regimen: Daily Repeat
Format: toxicity, organism-based, Sprague-Dawley
Design: regimen Daily Repeat, gender Male, age 6-8 weeks
Conditions: in vivo, po, 1200 mg/kg, route oral GAVAGE, dose level High, vehicle .5 % CMC; for ABSOLUTE BASOPHIL / ABSOLUTE EOSINOPHIL / ABSOLUTE LYMPHOCYTE / ABSOLUTE MONOCYTE / ABSOLUTE SEGMENTED NEUTROPHIL / BASOPHIL / EOSINOPHIL / ERYTHROCYTE COUNT / HEMATOCRIT / HEMOGLOBIN / LEUKOCYTE COUNT / LYMPHOCYTE / MEAN CORPUSCULAR HEMOGLOBIN / MEAN CORPUSCULAR HEMOGLOBIN CONCENTRATION / MEAN CORPUSCULAR VOLUME / MONOCYTE / NEUTROPHIL / NUCLEATED RED BLOOD CELLS / PLATELET COUNT: tissue Blood; for ALANINE AMINOTRANSFERASE / ALBUMIN / ALKALINE PHOSPHATASE / ASPARTATE AMINOTRANSFERASE / BLOOD UREA NITROGEN / CARBON DIOXIDE / CHLORIDE / CHOLESTEROL / CREATININE / GLUCOSE / LACTATE DEHYDROGENASE / LIPASE / PHOSPHORUS / POTASSIUM / SODIUM / TOTAL BILIRUBIN / TOTAL PROTEIN / URIC ACID: tissue Plasma

Nc1ccc(Cl)cc1[N+](=O)[O-] [4-CHLORO-2-NITROANILINE]
ABSOLUTE BASOPHIL (120 h, time 5 day): 0 CELLS/uL | ABSOLUTE EOSINOPHIL (120 h, time 5 day): 100.67 CELLS/uL | ABSOLUTE LYMPHOCYTE (120 h, time 5 day): 9384 CELLS/uL | ABSOLUTE MONOCYTE (120 h, time 5 day): 183 CELLS/uL | ABSOLUTE SEGMENTED NEUTROPHIL (120 h, time 5 day): 1099 CELLS/uL | BASOPHIL (120 h, time 5 day): 0% | EOSINOPHIL (120 h, time 5 day): 1% | ERYTHROCYTE COUNT (120 h, time 5 day): 6.3 x10E6/uL | HEMATOCRIT (120 h, time 5 day): 37.27% | HEMOGLOBIN (120 h, time 5 day): 13.47 G/DL | LEUKOCYTE COUNT (120 h, time 5 day): 10.77 x10E3/uL | LYMPHOCYTE (120 h, time 5 day): 87% | MEAN CORPUSCULAR HEMOGLOBIN (120 h, time 5 day): 21.43 pg | MEAN CORPUSCULAR HEMOGLOBIN CONCENTRATION (120 h, time 5 day): 36.17 G/DL | MEAN CORPUSCULAR VOLUME (120 h, time 5 day): 59.17 fL | MONOCYTE (120 h, time 5 day): 1.67% | NEUTROPHIL (120 h, time 5 day): 10.33% | NUCLEATED RED BLOOD CELLS (120 h, time 5 day): 0 /100WBC | PLATELET COUNT (120 h, time 5 day): 947 x10E3/uL | ALANINE AMINOTRANSFERASE (120 h, time 5 day): 49 u/L | ALBUMIN (120 h, time 5 day): 4.1 G/DL | ALKALINE PHOSPHATASE (120 h, time 5 day): 387 u/L | ASPARTATE AMINOTRANSFERASE (120 h, time 5 day): 69 u/L | BLOOD UREA NITROGEN (120 h, time 5 day): 12.67 mg/dL | CARBON DIOXIDE (120 h, time 5 day): 31 mmol/L | CHLORIDE (120 h, time 5 day): 102.67 MEQ/L | CHOLESTEROL (120 h, time 5 day): 97.33 mg/dL | CREATININE (120 h, time 5 day): 0.18 mg/dL | GLUCOSE (120 h, time 5 day): 126.33 mg/dL | LACTATE DEHYDROGENASE (120 h, time 5 day): 87 u/L | LIPASE (120 h, time 5 day): 10 u/L | PHOSPHORUS (120 h, time 5 day): 12.2 mg/dL | POTASSIUM (120 h, time 5 day): 7.1 MEQ/L | SODIUM (120 h, time 5 day): 147.03 MEQ/L | TOTAL BILIRUBIN (120 h, time 5 day): 0.23 mg/dL | TOTAL PROTEIN (120 h, time 5 day): 6.2 G/DL | URIC ACID (120 h, time 5 day): 1.5 mg/dL | ABSOLUTE BASOPHIL ([…], time 14 day): 0 CELLS/uL | ABSOLUTE EOSINOPHIL ([…], time 14 day): 305.4 CELLS/uL | ABSOLUTE LYMPHOCYTE ([…], time 14 day): 16745.4 CELLS/uL | ABSOLUTE MONOCYTE ([…], time 14 day): 700 CELLS/uL | ABSOLUTE SEGMENTED NEUTROPHIL ([…], time 14 day): 2009.2 CELLS/uL | BASOPHIL ([…], time 14 day): 0% | EOSINOPHIL ([…], time 14 day): 1.6% | ERYTHROCYTE COUNT ([…], time 14 day): 6.12 x10E6/uL | HEMATOCRIT ([…], time 14 day): 34.88% | HEMOGLOBIN ([…], time 14 day): 12.64 G/DL | LEUKOCYTE COUNT ([…], time 14 day): 19.76 x10E3/uL | LYMPHOCYTE ([…], time 14 day): 84.4% | MEAN CORPUSCULAR HEMOGLOBIN ([…], time 14 day): 20.64 pg | MEAN CORPUSCULAR HEMOGLOBIN CONCENTRATION ([…], time 14 day): 36.24 G/DL | MEAN CORPUSCULAR VOLUME ([…], time 14 day): 56.98 fL | MONOCYTE ([…], time 14 day): 3.4% | NEUTROPHIL ([…], time 14 day): 10.6% | NUCLEATED RED BLOOD CELLS ([…], time 14 day): 0 /100WBC | PLATELET COUNT ([…], time 14 day): 1103.4 x10E3/uL | ALANINE AMINOTRANSFERASE ([…], time 14 day): 58.8 u/L | ALBUMIN ([…], time 14 day): 4.18 G/DL | ALKALINE PHOSPHATASE ([…], time 14 day): 347.4 u/L | ASPARTATE AMINOTRANSFERASE ([…], time 14 day): 113.2 u/L | BLOOD UREA NITROGEN ([…], time 14 day): 20 mg/dL | CARBON DIOXIDE ([…], time 14 day): 28 mmol/L | CHLORIDE ([…], time 14 day): 100.8 MEQ/L | CHOLESTEROL ([…], time 14 day): 80.8 mg/dL | CREATININE ([…], time 14 day): 0.27 mg/dL | GLUCOSE ([…], time 14 day): 164.4 mg/dL | LACTATE DEHYDROGENASE ([…], time 14 day): 192 u/L | LIPASE ([…], time 14 day): 10.8 u/L | PHOSPHORUS ([…], time 14 day): 12.48 mg/dL | POTASSIUM ([…], time 14 day): 6.05 MEQ/L | SODIUM ([…], time 14 day): 146.34 MEQ/L | TOTAL BILIRUBIN ([…], time 14 day): 0.3 mg/dL | TOTAL PROTEIN ([…], time 14 day): 6.3 G/DL | URIC ACID ([…], time 14 day): 1.32 mg/dL
